Test results reported in patent US20260184697A1, “EZH1/2 INHIBITOR, PREPARATION THEREOF, AND USE THEREOF IN ANTI-TUMOR THERAPY” (JIANGSU TASLY DIYI PHARMACEUTICAL CO., LTD., priority 2022, published 2026).
Like-named read-outs stand apart in the source and are kept apart here.

How the values were obtained:
[1] = molecular target: T1, EZH2/SUZ/EED (Homo sapiens, UniProt O75530+Q15022+Q15910); assay: Inhibitory effect on EZH2 by the MTase-Glo method (Test Example 1); type: biochemical; conditions: EZH2/SUZ/EED 6.25 nM, H3 peptide 10 μM, SAM 3 μM, 30° C. 3 h, read-out: Test Example 1 WT EZH2 IC50
T1 construct: purchased BPS 51003
Protocol: (§1) The compound was dissolved in DMSO, and the compound was serially diluted using ECHO665 and transferred to a 384-well reaction plate (Corning, 3824). A sample containing only DMSO was added as a positive control (maximum signal control) and a negative control (minimum signal control), while ensuring that the final DMSO content in each reaction well was 0.5%. The protein was configured in reaction buffer (50 mM Bicine, 0.01% Triton X-100, 1 mM DTT, 0.01% BSA, pH 7.6), such that the final reaction concentrations of EZH2/SUZ/EED (BPS, 51003) protein solution and EZH1/SUZ/EED (BPS, 51006) were 6.25 nM and 25 nM, respectively. The negative control (minimum signal control) used an equal amount of buffer instead of protein solution. The prepared protein solution was added to the 384-well reaction plate and pre-incubated at room temperature for 15 minutes. The mixture of the substrate H3 peptide fragment (custom-synthesized by GenScript, biotinylated Histone H3(21-44) peptide ([…]-GG-K(Biotin)-OH)) prepared in the reaction buffer and SAM (Promega, V7601) was added into the 384-well plate, such that the final reaction concentration of H3 peptide fragment was 10 μM, and the final concentration of SAM was 3 μM. The mixture was centrifuged at 1000 rpm for 1 min. The 384-well reaction plate was placed in a constant temperature shaker and incubate at 30° C. for 3 h at a speed of 300 rpm. Then the detection reagent was added according to the experimental process of the kit MTase-Glo (Promega, V7601) and incubated.
(§2) After incubation, read with BMG PHERAStar. The luminescence signals obtained by positive control (maximum signal control) and negative control (minimum signal control) were normalized to obtain the inhibition rate of different concentrations of compounds. Then, the IC50 of the compound on the enzyme activity inhibition was calculated by GraphPad Prism 6 with log(inhibitor) vs. response-Variable slope model fitting. The fitting equation is: Y=Bottom+(Top−Bottom)/(1+10^((Log IC50−X)*HillSlope)), wherein Y represents the known percentage remaining enzyme activity, and X represents the known activity after Log compound concentration.

[2] = test system: H3K27Me3 methylation in Karpas-422 cells; assay: H3K27Me3 cell method, inhibition of H3K27Me3 methylation (Test Example 2); type: cell-based, human
Protocol: Karpas-422 (Nanjing Kebai, CBP60629) cells were seeded in a 96-well plate (Corning, 3894) at 15,000 cells per well in culture medium (80% 1640 (Hyclone, SH30809.01)+20% FBS (Corning, 35-081-CV)), and then added with different concentrations of compounds for treatment. The cell growth group without adding compounds is used as a positive control (maximum signal control), and the medium is used as a negative control (minimum signal control), while ensuring that in each reaction well, the final concentration of DMSO was 0.2%. Compounds and cells were incubated for 3 days in a cell culture incubator (37° C., 5% CO2). The 96-well plate was taken out from the cell culture incubator and equilibrated to room temperature, and 25 ul of cell suspension was taken out into a 384-well plate. The CCK8 (Beiyuntian, C0040) detection reagent was added, incubated at 37° C. for 1 h, and […] was detected. The rest of the cells followed the procedure of the kit EPIgeneous H3K27Me3 cellular kit (Cisbio, 62KC3PAE) to carry out experiment, read HTRF signal with BMG PHERAStar. […] By GraphPad Prism 6 with log(inhibitor)vs.response-Variable slope model simulation, the IC50 of the compound on cell activity inhibition was calculated. The fitting equation is: Y=Bottom+(Top−Bottom)/(1+10^((Log IC50−X)*HillSlope)), wherein Y represents the inhibition rate, and X represents the known concentration of the compound after Log.

[3] = molecular target: T2, EZH1/SUZ/EED (Homo sapiens, UniProt O75530+Q15022+Q92800); assay: Inhibitory effect on EZH1 by the MTase-Glo method (Test Example 1); type: biochemical; conditions: EZH1/SUZ/EED 25 nM, H3 peptide 10 μM, SAM 3 μM, 30° C. 3 h, read-out: Test Example 1 WT EZH1 IC50
T2 construct: purchased BPS 51006
Protocol: as §1, §2

[4] = Karpas-422 cells, 3 days incubation, HTRF signal, read-out: Test Example 2 H3K27Me3 inhibition (Karpas-422) IC50
[5] = Homo sapiens, KARPAS-422, 72 h, Karpas-422 cells, 3 days incubation, HTRF signal, read-out: Test Example 2 H3K27Me3 inhibition (Karpas-422) IC50
[6] = Homo sapiens, KARPAS-422, 72 h, read-out: Test Example 2 H3K27Me3 inhibition (Karpas-422) IC50(nM)

T2 sequence (Q92800 2-747 limits assumed): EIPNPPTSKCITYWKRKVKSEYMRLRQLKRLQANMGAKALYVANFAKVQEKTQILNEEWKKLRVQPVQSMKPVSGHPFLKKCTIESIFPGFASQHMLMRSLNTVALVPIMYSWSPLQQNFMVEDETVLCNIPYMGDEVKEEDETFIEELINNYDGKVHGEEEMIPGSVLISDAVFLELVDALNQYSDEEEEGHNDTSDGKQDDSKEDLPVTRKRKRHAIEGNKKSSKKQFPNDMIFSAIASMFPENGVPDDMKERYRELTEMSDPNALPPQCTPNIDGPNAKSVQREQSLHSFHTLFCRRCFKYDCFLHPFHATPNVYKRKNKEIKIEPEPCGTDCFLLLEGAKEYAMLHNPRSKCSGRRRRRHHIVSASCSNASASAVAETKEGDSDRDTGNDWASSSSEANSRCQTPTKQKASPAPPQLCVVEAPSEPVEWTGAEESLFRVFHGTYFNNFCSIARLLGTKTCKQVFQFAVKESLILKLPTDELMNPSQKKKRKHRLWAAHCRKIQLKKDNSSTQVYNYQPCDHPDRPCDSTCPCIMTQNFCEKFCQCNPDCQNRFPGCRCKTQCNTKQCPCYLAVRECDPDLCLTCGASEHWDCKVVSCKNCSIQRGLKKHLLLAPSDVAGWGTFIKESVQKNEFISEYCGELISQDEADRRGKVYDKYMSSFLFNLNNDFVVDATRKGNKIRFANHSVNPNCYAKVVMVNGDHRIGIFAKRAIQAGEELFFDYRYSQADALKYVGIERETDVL
T2 sequence (Q15022 2-739 partner limits assumed): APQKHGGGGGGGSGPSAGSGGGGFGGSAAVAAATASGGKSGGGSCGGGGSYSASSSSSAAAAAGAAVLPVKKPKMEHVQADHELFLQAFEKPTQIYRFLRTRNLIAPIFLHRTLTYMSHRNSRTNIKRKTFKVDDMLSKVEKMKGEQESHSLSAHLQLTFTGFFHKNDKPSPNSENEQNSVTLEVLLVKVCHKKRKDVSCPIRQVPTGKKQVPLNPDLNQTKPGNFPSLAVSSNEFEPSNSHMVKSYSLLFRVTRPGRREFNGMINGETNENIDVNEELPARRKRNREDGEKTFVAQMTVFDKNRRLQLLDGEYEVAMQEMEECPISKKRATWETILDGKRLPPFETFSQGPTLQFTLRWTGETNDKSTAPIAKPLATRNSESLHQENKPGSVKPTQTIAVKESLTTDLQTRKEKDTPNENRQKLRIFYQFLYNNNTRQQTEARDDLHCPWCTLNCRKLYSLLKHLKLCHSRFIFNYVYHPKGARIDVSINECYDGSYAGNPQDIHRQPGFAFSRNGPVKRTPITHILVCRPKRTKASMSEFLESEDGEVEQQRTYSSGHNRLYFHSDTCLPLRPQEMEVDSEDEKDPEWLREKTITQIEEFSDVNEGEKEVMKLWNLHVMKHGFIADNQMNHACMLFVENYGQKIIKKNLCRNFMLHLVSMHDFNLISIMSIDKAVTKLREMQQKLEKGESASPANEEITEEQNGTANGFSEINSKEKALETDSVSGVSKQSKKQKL
T2 sequence (O75530 2-441 partner limits assumed): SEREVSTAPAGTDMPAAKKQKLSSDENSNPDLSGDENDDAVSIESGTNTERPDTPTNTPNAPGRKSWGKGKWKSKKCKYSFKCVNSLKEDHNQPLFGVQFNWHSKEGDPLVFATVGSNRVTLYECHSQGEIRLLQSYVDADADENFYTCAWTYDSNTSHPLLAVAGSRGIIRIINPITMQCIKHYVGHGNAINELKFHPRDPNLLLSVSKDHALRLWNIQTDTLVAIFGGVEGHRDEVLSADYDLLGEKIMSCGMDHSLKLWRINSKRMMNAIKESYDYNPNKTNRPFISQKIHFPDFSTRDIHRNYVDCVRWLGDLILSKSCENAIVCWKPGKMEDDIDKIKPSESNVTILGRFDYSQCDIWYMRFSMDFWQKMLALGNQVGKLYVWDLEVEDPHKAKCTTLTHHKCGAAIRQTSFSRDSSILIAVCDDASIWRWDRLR
T1 sequence (Q15910 2-746 limits assumed): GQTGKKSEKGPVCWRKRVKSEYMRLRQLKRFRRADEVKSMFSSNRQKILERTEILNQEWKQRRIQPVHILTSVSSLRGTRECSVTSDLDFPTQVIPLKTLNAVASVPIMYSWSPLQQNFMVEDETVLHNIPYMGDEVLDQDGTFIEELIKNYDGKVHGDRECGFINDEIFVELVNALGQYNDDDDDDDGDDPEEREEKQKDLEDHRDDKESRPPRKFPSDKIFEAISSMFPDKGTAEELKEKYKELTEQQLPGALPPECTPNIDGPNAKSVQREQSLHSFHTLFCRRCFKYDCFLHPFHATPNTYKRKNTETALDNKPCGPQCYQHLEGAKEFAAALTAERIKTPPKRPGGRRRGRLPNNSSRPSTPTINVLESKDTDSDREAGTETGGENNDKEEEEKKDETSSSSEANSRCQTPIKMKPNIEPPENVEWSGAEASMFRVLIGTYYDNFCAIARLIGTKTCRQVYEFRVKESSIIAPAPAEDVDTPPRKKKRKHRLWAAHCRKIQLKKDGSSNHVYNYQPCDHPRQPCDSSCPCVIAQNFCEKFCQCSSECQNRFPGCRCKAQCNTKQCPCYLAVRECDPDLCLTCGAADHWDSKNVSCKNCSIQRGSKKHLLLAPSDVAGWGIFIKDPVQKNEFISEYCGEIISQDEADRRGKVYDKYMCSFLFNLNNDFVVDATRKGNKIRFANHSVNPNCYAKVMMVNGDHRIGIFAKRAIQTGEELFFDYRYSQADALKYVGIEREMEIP
T1 sequence (Q15022 2-739 partner limits assumed): as the sequence (Q15022 2-739 partner limits assumed) above
T1 sequence (O75530 2-441 partner limits assumed): as the sequence (O75530 2-441 partner limits assumed) above

Row | Structure (SMILES) | IC50 [1] [nM] | IC50 [2, 4] [nM] | IC50 [3] [nM] | IC50 [2, 5] [nM] | IC50 [2, 6] [nM]
1 | Cc1cc(C)c(CNC(=O)c2cc(Cl)c3c(c2C)OC(C2CCC(N4CC5COCC5C4)CC2)CO3)c(=O)[nH]1 (single isomer, unassigned) [Compound 60] | 16.4 | > 1000 | 94.9 |  | 
2 | Cc1cc(C)c(CNC(=O)c2cc(Cl)c3c(c2C)OC(C2CCC(NC4CC(F)C4)CC2)CO3)c(=O)[nH]1 (single isomer, unassigned) [Compound 64] | 16.6 |  | 254 | 896 | 
3 | COCCN1CCC([C@H]2COc3c(Cl)cc(C(=O)NCc4c(SC)cc(C)[nH]c4=O)c(C)c3O2)CC1 [Compound 17] | 4.6 |  | 16.5 | 12 | 
4 | CSc1cc(C)[nH]c(=O)c1CNC(=O)c1cc(Cl)c2c(c1C)O[C@@H](C1CCN(CCF)CC1)CO2 [Compound 24] | 4.5 |  | 9.2 | 9.8 | 
5 | COCCN(C)[C@H]1CC[C@@H]([C@H]2COc3c(Cl)cc(C(=O)NCc4c(SC)cc(C)[nH]c4=O)c(C)c3O2)CC1 [Compound 26] | 2 |  | 5.4 | 3.4 | 
6 | COCCN(C)[C@H]1CC[C@H]([C@H]2COc3c(Cl)cc(C(=O)NCc4c(SC)cc(C)[nH]c4=O)c(C)c3O2)CC1 [Compound 27] | 2.3 |  | 14.4 | 11.4 | 
7 | CSc1cc(C)[nH]c(=O)c1CNC(=O)c1cc(Cl)c2c(c1C)O[C@@H]([C@H]1CC[C@H](N3CCC3)CC1)CO2 [Compound 33] | 3.6 |  | 9.4 |  | 7.7
8 | CCS(=O)(=O)N1CCC([C@H]2COc3c(Cl)cc(C(=O)NCc4c(SC)cc(C)[nH]c4=O)c(C)c3O2)CC1 [Compound 38] | 2.3 |  | 4.7 | 11.5 | 
9 | COCCN(C)[C@H]1CC[C@@H]([C@H]2COc3c(Cl)cc(C(=O)NCc4c(OC)cc(C)[nH]c4=O)c(C)c3O2)CC1 [Compound 107] | 3.2 |  | 17.8 | 56.9 | 
10 | Cc1cc(C)c(CNC(=O)c2cc(Cl)c3c(c2C)OC(C2CCC(N(C)C)CC2)C(C)O3)c(=O)[nH]1 (stereo not drawn) [Compound 124] | 16.1 |  | 326 |  | 133
11 | Cc1cc(C)c(CNC(=O)c2cc(Cl)c3c(c2C)OC(C2CCC(N(C)CCF)CC2)CO3)c(=O)[nH]1 (stereo not drawn) [Compound 125] | 33.9 |  | 307 | 402 | 
12 | Cc1cc(C)c(CNC(=O)c2cc(Cl)c3c(c2C)OC(C2CCC(N(C)C4CC(F)C4)CC2)CO3)c(=O)[nH]1 (stereo not drawn) [Compound 126] | 20.3 |  | 218 | 818 | 
13 | Cc1cc(C)c(CNC(=O)c2c(C)c3c(c(Cl)c2F)OC[C@H]([C@H]2CC[C@@H](N(C)C)CC2)O3)c(=O)[nH]1 [Compound 131] | 3.1 |  | 46.8 | 43.3 | 
14 | Cc1cc(C)c(CNC(=O)c2cc(Cl)c3c(c2Cl)OC[C@@H]([C@H]2CC[C@@H](N(C)C)CC2)O3)c(=O)[nH]1 [Compound 147] | 6.8 |  | 92 |  | 83

Second part, led by results:

Row | IC50 [1] [nM] | IC50 [2, 4] [nM] | IC50 [3] [nM] | IC50 [2, 5] [nM] | Structure (SMILES) | IC50 [2, 6] [nM]
15 | 22.1 | 504 | 1440 |  | COC1CN(C2CCC(C3COc4c(Cl)cc(C(=O)NCc5c(C)cc(C)[nH]c5=O)c(C)c4O3)CC2)C1 (single isomer, unassigned) [Compound 62] | 
16 | 22.1 |  | 177 | 201 | Cc1cc(C)c(CNC(=O)c2cc(Cl)c3c(c2C)OC(C2CCC(N4CC(F)C4)CC2)CO3)c(=O)[nH]1 (single isomer, unassigned) [Compound 70] | 
17 | 7.6 | 7.6 | 270 |  | Cc1cc(C)c(CNC(=O)c2cc(Cl)c3c(c2C)OC(C2CCC(N4CC(OC5CC5)C4)CC2)CO3)c(=O)[nH]1 (single isomer, unassigned) [Compound 76] | 
18 | 27.3 | 260 | 142 |  | Cc1cc(C)c(CNC(=O)c2cc(Cl)c3c(c2C)OC(C2CCC(N4CC(OC5CC5)C4)CC2)CO3)c(=O)[nH]1 (single isomer, unassigned) [Compound 77] | 
19 | 2.1 |  | 2.3 | 1.8 | [2H]C1(OC)CN([C@H]2CC[C@@H]([C@H]3COc4c(Cl)cc(C(=O)NCc5c(SC)cc(C)[nH]c5=O)c(C)c4O3)CC2)C1 [Compound 22] | 
20 | 1.6 |  | 8.3 | 17.3 | CSc1cc(C)[nH]c(=O)c1CNC(=O)c1cc(Cl)c2c(c1C)O[C@@H](C1CCN(CC3CCC3)CC1)CO2 [Compound 25] | 
21 | 3.7 |  | 9.4 | 8.2 | CSc1cc(C)[nH]c(=O)c1CNC(=O)c1cc(Cl)c2c(c1C)O[C@@H]([C@H]1CC[C@@H](N3CC4(COC4)C3)CC1)CO2 [Compound 28] | 
22 | 3.3 |  | 5.8 | 34.2 | CSc1cc(C)[nH]c(=O)c1CNC(=O)c1cc(Cl)c2c(c1C)O[C@@H]([C@H]1CC[C@H](N3CC4(COC4)C3)CC1)CO2 [Compound 29] | 
23 | 3.4 |  | 7.4 | 60.5 | CSc1cc(C)[nH]c(=O)c1CNC(=O)c1cc(Cl)c2c(c1C)O[C@@H]([C@H]1CC[C@H](N3CC(CF)C3)CC1)CO2 [Compound 35] | 
24 | 2.4 |  | 9.7 | 11 | CSc1cc(C)[nH]c(=O)c1CNC(=O)c1cc(Cl)c2c(c1C)O[C@@H]([C@H]1CC[C@@H](NC3(CF)COC3)CC1)CO2 [Compound 36] | 
25 | 3.1 |  | 5.9 | 7 | CSc1cc(C)[nH]c(=O)c1CNC(=O)c1cc(Cl)c2c(c1C)O[C@@H]([C@H]1CC[C@H](NC3(CF)COC3)CC1)CO2 [Compound 37] | 
26 | 3.6 |  | 4.1 | 4.1 | COC1C2CN([C@H]3CC[C@@H]([C@H]4COc5c(Cl)cc(C(=O)NCc6c(SC)cc(C)[nH]c6=O)c(C)c5O4)CC3)CC21 (stereo partly drawn) [Compound 43] | 
27 | 51.3 |  | 196 | > 1000 | Cc1cc(C)c(CNC(=O)c2cc(Cl)c3c(c2C)O[C@@H]([C@H]2CC[C@@H](N4CC5COCC5C4)CC2)CO3)c(=O)[nH]1 (stereo partly drawn) [Compound 73] | 
28 | 48.1 |  | 199 | 245 | Cc1cc(C)c(CNC(=O)c2cc(Cl)c3c(c2C)O[C@@H]([C@H]2CC[C@H](N4CC5COCC5C4)CC2)CO3)c(=O)[nH]1 (stereo partly drawn) [Compound 75] | 
29 | 3.8 |  | 27.3 | 11.7 | COCCOC1CN([C@H]2CC[C@@H]([C@H]3COc4c(Cl)cc(C(=O)NCc5c(C)cc(C)[nH]c5=O)c(C)c4O3)CC2)C1 [Compound 91] | 
30 | 2.5 |  | 33.1 | 22 | COC1CN([C@H]2CC[C@@H]([C@H]3COc4c(Cl)cc(C(=O)NCc5c(C)cc(C)[nH]c5=O)c(C)c4O3)CC2)C1 [Compound 92] | 
31 | 2.7 |  | 15.4 | 21.3 | COc1cc(C)[nH]c(=O)c1CNC(=O)c1cc(Cl)c2c(c1C)O[C@@H]([C@H]1CC[C@H](N3CC(OCCF)C3)CC1)CO2 [Compound 110] | 
